Laboratory results taken from patent US8658677B2, “Pyridyl-2-methylamino compounds, compositions and uses thereof” (Aria Neurosciences Inc., priority 2011, dated 2014).
“Also recorded” adds a separate entry of the source. Read-outs that look alike come from different tables or passages of the source.

Experiments:
M17 neuroblastoma cells = assay: Rescue of M17 neuroblastoma cells from death induced by MPP+ and H2O2 (MTT); type: cell-based
Excerpt: Cell viability was detected by MTT assay.

Log P = type: physicochemical
APPSW/PS1dE9 mice = assay: Memory testing: object recognition and 8-armed radial arm maze; type: in vivo; settings: 50 mg/kg/day ip, last three weeks of treatment
Method: Female APPSW/PS1dE9 mice received ARN2966 (n=10) or Vehicle (n=15) from the age of six to ten months. ARN2966 (50 mg/kg/day) was given once a day by intraperitoneal injection. […] After conclusion of the experiments, samples of organs from ARN2966 and Vehicle treated animals were subjected to histopathological evaluation conducted by a veterinary pathologist. […] Signs of mild chronic peritonitis related to repeated daily intraperitoneal compound injection, however, were reported in both groups.
P<0.05, unpaired, two-tailed t-test. […] One session is given per day. […] Starting from day five, vehicle treated APPSW/PS1dE9mice were consistently making more errors than ARN2966 treated APPSW/PS1dE9 and non-Tg littermates. One-way ANOVA p<0.001.
During the last three weeks of treatment, animals were behaviorally tested using object recognition paradigm and the 8-armed radial arm maze, both of which measure memory capability. […] However, vehicle treated APPSW/PS1dE9 mice were incapable of discriminating between familiar and novel objects, as is characteristic of their phenotype.

[1] = Pharmacokinetic characterization including BBB permeability; type: in vivo, CD-1 WT mice; settings: for Brain Cmax / Cmax: mean ±SD; for F (fraction dose absorbed): accounted for po and iv dose difference; for half-life: read-out: Plasma t1/2 (converted)
Method: Pharmacokinetic characterization including BBB permeability of ARN2966 was performed in three months old, male CD-1 WT mice, which received a single oral (po; 25 mg/kg) or intravenous (iv; 5 mg/kg) dose of ARN2966 and were sacrificed 0.25, 0.5, 1, 2, 8, and 24 hr later (n=3 per time point). Plasma and brain concentration of ARN2966 were determined using liquid chromatography-mass spectrometry (LC/MS) (Table I). […] 64.2% of its orally administered dose was absorbed from the alimentary tract. […] This is because of the instability of —CH═N— bond. Therefore, we focused on PK/BBB permeability characterization of ARN2966, where —CH═N— bond was reduced to —CH2—NH—.

APP = assay: 35S-Methionine pulse labeling of APP in 751APPSW CHO cells; type: cell-based, human
Method: D. APP was immunoprecipitated with 22C11 mAb against its N-terminus. Representative radiographs (B) and densitometric results averaged from three independent experiments are shown (A). […] Two sets of experiments were conducted using either actin or GAPDH as housekeeping genes.

Aβ40 = target: T1, Aβ40 (Homo sapiens, UniProt P05067); assay: Oligomerization assay; type: biochemical
T1 construct: host or cells: chemical solid-phase peptide synthesis (no expression host)
T1 sequence (P05067 672-711): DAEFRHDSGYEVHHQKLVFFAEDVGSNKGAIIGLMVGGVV
Method: […] monomerized synthetic Aβ40 was incubated in 0.1M Tris pH 7.0, T=37° C. for 8 days in the presence of 0-100 μM concentration of compounds. […] An arrow indicates Aβ monomers clustered in ill developed protofibril. (C) Oligomerization assay. ARN4261 and ARN4224 reduced the amount of Aβ oligomers by 78% and 74%, respectively p<0.001. A compound 69b (GKLVFNmgA) was used as a positive control. 69b is homologous to Aβ sequence 17-21 and contains N-methyl glycine (Nmg), which renders it capable of anti-fibrillization and anti-oligomerization effect. (D) Principle of oligomerization assay. 100 μM Aβ40 was aggregated alone or with the addition of 10 μM of tested compounds [1:10 compound: Ab ratio] for 24 h in conditions promoting oligomers assembly, i.e., DMEM/F-12 medium+0.2% SDS, T=4° C. Prior to SDS-PAGE in non-reducing conditions samples were treated with glutaraldehyde. A strong smear of Aβ oligomers is seen between 37 and 70 KDa markers (arrows) in lane 2, and a dense band below the 25 KDa marker reflects Aβ monomers non-dissociated by 10% polyacrylamide gel. No oligomers above 37 KDa marker are seen in lane 1 containing only Aβ monomers run as a control. […] (E) TEM of Aβ oligomers. […] Yellow arrowhead indicates smaller oligomers.

[2] = male, CD-1, mouse, plasma, IV - 5 mg/kg, mice
[3] = male, CD-1, mouse, plasma, PO - 25 mg/kg, mice

Compound: Oc1ccccc1NCc1ccccn1 [ARN2966, 2-[(pyridine-2-ylmethyl)-amino]-phenol]
- cell morphology by phase contrast microscopy (M17 neuroblastoma cells): restored normal cell morphology
- rescue of cell death induced by H2O2 (M17 neuroblastoma cells; 300 μM H2O2, increasing concentrations, MTT): rescue M17 neuroblastoma cell death
- rescue of cell death induced by MPP+ (M17 neuroblastoma cells; 0.5 mM MPP+, increasing concentrations, MTT): rescue M17 neuroblastoma cell death
- logP (Log P): 1.96
- object recognition test (APPSW/PS1dE9 mice): spent significantly more time exploring the novel object; also recorded: able to distinguish a novel object from the familiar object
- radial arm maze, errors per session (APPSW/PS1dE9 mice): made fewer errors than vehicle group
- Brain Cmax ([1]; IV - 5 mg/kg, mice, 5 mg/kg): 21.4 µg/kg
- Brain Cmax ([1]; IV - 5 mg/kg, mice, listed as ARN 2966, 5 mg/kg): 21.4 ± 2.7 µg/kg
- F (fraction dose absorbed) ([1]; PO - 25 mg/kg, 25 mg/kg): 64.2%
- F (fraction dose absorbed) ([1]; PO - 25 mg/kg, listed as ARN 2966, 25 mg/kg): 64.20%
- Brain Cmax ([1]; PO - 25 mg/kg, mice): 12.5 ± 2.3 µg/kg
- maximal brain concentration ([1]; after iv dosing, 5 mg/kg): 0.11 µM
- Tmax ([1]; male, CD-1, mouse, brain, IV - 5 mg/kg, mice, read-out: Brain Tmax): 15 min
- Tmax ([1]; male, CD-1, mouse, brain, PO - 25 mg/kg, mice, read-out: Brain Tmax): 30 min
- AUC(0-inf) [1, 2]: 1230 ng·h/mL
- clearance [1, 2]: 67.8 mL/min/kg
- Cmax [1, 2]: 1030 ± 440 ng/mL
- Tmax ([1]; male, CD-1, mouse, plasma, IV - 5 mg/kg, mice, read-out: Plasma Tmax): 15 min
- half-life [1, 2]: 368 min
- Vd ([1]; male, CD-1, mouse, plasma, IV - 5 mg/kg, mice, read-out: Vz): 36 L/kg
- AUC(0-inf) [1, 3]: 3950 ng·h/mL
- Cmax [1, 3]: 2660 ± 382 ng/mL
- Tmax ([1]; male, CD-1, mouse, plasma, PO - 25 mg/kg, mice, read-out: Plasma Tmax): 30 min
- half-life [1, 3]: 215 min
- reduction of translation of APP (APP; 25 μM, 2 h 35S-Methionine pulse): 61.5%
- incorporation of 35S-Methionine by APP during translation (APP; 751APPSW CHO cells): significantly reduced incorporation of 35S-Methionine by APP
- translation of β-actin (APP; 751APPSW CHO cells): remained unaltered

Compound: Oc1ccccc1N=Cc1ccccn1 [ARN4261, 2-(Pyridin-2-ylmethyleneamino)-phenol]
- TEM of Aβ oligomers (Aβ40): increased number of Aβ monomers and dimers
- reduction of the amount of Aβ oligomers (Aβ40; 100 μM Aβ40, 10 μM compound, 24 h, DMEM/F-12 + 0.2% SDS, 4° C.): 78%
- amount of oligomers on SDS-PAGE (Aβ40; 100 μM Aβ40, 10 μM compound, 24 h, lanes 3-5): reduced amount of oligomers
